Columns and labels:
[1] = test system: MDA-MB-231 cells (breast adenocarcinoma); assay: MDA-MB-231 xenograft model in humanized NSG mice; assay type: in vivo; conditions: IV, weekly
Experimental: Mice were subcutaneously inoculated with 5×10^6 MDA-MB-231 cells (breast adenocarcinoma; American Tissue Culture Collection (ATCC), cat. no. HTB-26), in 100 μL phosphate-buffered saline (PBS). Before inoculation, cells were cultured in DMEM with high glucose and HEPES without L-glutamine (Lonza, cat. no. BE12-[…]), 10% (v/v) donor bovine serum with iron New Zealand Origin (Thermo Fisher Scientific, DBSI, cat. no. 10371-029), 2 mM L-glutamine (Lonza, cat. no. BE17-[…]), 1 mM Na-pyruvate (Lonza, cat. no. BE13-[…]), MEM non-essential amino acids (Life Technologies, cat. no. 11140) and 1% (v/v) penicillin/streptomycin (Lonza, cat. no. DE17-[…]), in CellSTACK culture chambers (Corning, cat. no. 3313). Tumor size was determined by caliper measurement at least two times a week and tumor volume was calculated as 0.52×length×width^2. […] The first dose of the anti-PD-1 antibody (i.e., pembrolizumab) was 10 mg/kg, followed by 5 mg/kg every five days for a maximum of six treatments. […] The IgG1 isotype control antibody is the b12 antibody which is known to bind to HIV-1 gp120. […] Mice were housed in individually ventilated (IVC) cages, five mice per cage and identified by ear tags. […] Statistical comparison of tumor burden was performed using Mann-Whitney analysis on the last day that all treatment groups were intact. Kaplan-Meier analysis was performed based on tumor volume (>500 mm^3).

[2] = test system: murine tumor cells that stably express human TF; assay: Syngeneic tumor model: immunization with drug-killed human TF positive murine tumor cells, then tumor challenge; assay type: in vivo, Balb/c mice; conditions: mice immunized with tumor cells killed by 1-5 μg per ml tisotumab vedotin or 100 nM MMAE
Experimental: Mouse tumor cells are transfected with plasmid constructs encoding human tissue factor (TF) and sgRNA-guided Cas9 nuclease (sgRNA/Cas9) to generate a murine cell line that expresses the human TF. Fluorescence activated cell sorting (FACS) yields a clonal population of murine tumor cells that stably express human TF, these cells are then treated with 1 μg to 5 μg per ml of tisotumab vedotin or 100 nM of MMAE for 4 days. In order to prepare dying cells for immunization, treated murine tumor cells are overlaid atop Histopaque, and centrifuged at 2000 g for 30 minutes. Dead and dying cells are pelleted underneath the Histopaque layer, and viability assessed by trypan blue exclusion. A sample with approximately <20% live cells as measured by trypan blue exclusion is obtained. Flash-frozen tumor cells are prepared by submerging the cells in liquid nitrogen for 10 seconds, followed by immersion in 37° C. water until completely thawed. The liquid nitrogen freeze-thaw process is repeated 5 times. Dead and dying human TF positive tumor cells are resuspended in phosphate buffered saline (PBS) and 2×10^6 cells are injected into the peritoneum of immune-competent Balb/c mice. Seven days later, mice receive a second immunization with dead and dying cells prepared in the same manner.
Fourteen days after initial immunization with the dead and dying human TF positive tumor cells, mice are subcutaneously implanted with 5×10^6 wild-type tumor cells and monitored for tumor growth. […] As these effects occur in the absence of any administered therapeutic agent, the administration of cells killed by tisotumab vedotin or MMAE is sufficient to generate long-lasting protective immune memory against subsequent tumor cell challenge. Protective immune memory is amplified by treating these mice with tisotumab vedotin in combination with an antibody that binds to murine PD-1.

[3] = test system: HPAFII (pancreatic carcinoma); assay: Western blot analysis of ER stress induction in HPAFII cells; assay type: cell-based; conditions: 18 hours (legend: 16 hours)
Experimental: Induction of cell death and release of ICD danger signals occurs concomitant with initiation of an ER stress response. Two Tissue Factor positive cell lines, HPAFII (pancreatic carcinoma) and MDA-MB-231 (breast cell carcinoma) were exposed to tisotumab vedotin ADC, an Isotype-MMAE ADC (H00-MMAE, IgG1 MMAE), or free MMAE for 18 hours and induction of ER stress monitored by western blot analysis. Phosphorylation of inositol-requiring transmembrane kinase/endonuclease 1 (IRE1) was detected after treatment with tisotumab vedotin ADC or MMAE free drug (FIG. 6). […] The ability for auristatins to prime the immune system to recognize tumor antigens opens the door for a myriad of combinatorial therapeutic options.

[4] = test system: CD14+ monocyte/macrophages; assay: Monocyte/macrophage activation in PBMCs fed killed MDA-MB-231 cells; assay type: cell-based, human
Text: FIGS. 7A and 7B is a series of graphs in which Tissue Factor positive MDA-MB-231 cells killed with various agents were fed to human peripheral blood mononuclear cells (PBMCs) and immune activation assessed by increased expression of activations markers on innate CD14+ monocyte/macrophages and induction of chemokine and cytokine production.
Immunogenic cell death, as mediated by MMAE, is regulated cell death that activates adaptive immune responses against antigens from dead and dying tumor cells, and allows for the generation of robust innate immune cell activation and subsequent cytotoxic T cell responses targeted towards specific tumor cell antigens. […] Furthermore, these monocyte/macrophages conditioned by ICD-killed cells promote activation of T cells, as evidenced by production of signature inflammatory cytokines associated with cytotoxic T cell responses.

[5] = compared to IgG1-MMAE ADC or tisotumab alone

With “tisotumab vedotin: antibody-drug conjugate comprising an antibody that binds to tissue factor (TF), a protease-cleavable linker, and the microtubule disrupting agent MMAE” the “tumor burden as assessed by tumor volume” value ([1]; tisotumab vedotin alone 0.5 mg/kg) was “efficiently reduced tumor burden”, the “tumor burden as assessed by tumor volume” value ([1]; tisotumab vedotin alone 1.0 mg/kg) was “efficiently reduced tumor burden” and the “survival after challenge with wild-type tumor cells” value [2] was “increased survival”. For the same substance, the “tumor growth after challenge with wild-type tumor cells” value [2] was “delayed tumor growth”, the “ATF4 cleavage (PERK pathway)” value [3] was “upregulation of ATF4 cleavage” and the “phosphorylation of IRE1” value [3] was “detected”. For the same substance, the “phosphorylation of JNK” value [3] was “increased phosphorylation”, the “chemotactic and inflammatory mediators from monocyte/macrophages after uptake of dead cells” value [4] was “elicit strong chemotactic and inflammatory mediators” and the “monocyte/macrophage activation, CD86 expression by flow cytometry” value [4, 5] was “drove monocyte/macrophage activations”. For the same substance, the “release of innate chemokines including MIP 1β” value [4, 5] was “induced release of innate chemokines including MIP 1β”.
